Results as given in paper doi:10.1101/2023.04.01.534865v1 (biorxiv, 2023).

Molecular target: T1, GST-OSBP(377-807) (Homo sapiens, UniProt P22059)
T1 sequence (P22059 377-807): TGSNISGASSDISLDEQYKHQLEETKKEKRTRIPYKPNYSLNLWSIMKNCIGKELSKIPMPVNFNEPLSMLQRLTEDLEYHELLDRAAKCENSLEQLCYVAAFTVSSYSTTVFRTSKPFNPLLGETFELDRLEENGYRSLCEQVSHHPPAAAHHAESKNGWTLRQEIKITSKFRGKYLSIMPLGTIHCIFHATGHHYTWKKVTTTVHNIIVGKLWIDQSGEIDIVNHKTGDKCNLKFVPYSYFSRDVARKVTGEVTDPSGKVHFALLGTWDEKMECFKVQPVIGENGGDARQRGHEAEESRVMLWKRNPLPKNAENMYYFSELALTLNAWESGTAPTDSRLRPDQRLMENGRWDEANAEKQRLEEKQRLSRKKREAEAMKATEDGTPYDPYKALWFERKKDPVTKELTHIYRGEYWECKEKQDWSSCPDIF
Experiment: competitive fluorescence polarization
Type: binding

C[C@H](CCC(=O)NCCCOCCCCOCCCNC(=O)CC12CC3CC(CC(C3)C1)C2)[C@H]1CC[C@H]2[C@@H]3CC=C4C[C@@H](O)CC[C@]4(C)[C@H]3CC[C@]12C [C3_HyT, oxybipin-1]
IC50: 142 nM

C[C@H](CCC(=O)NCCCOCCCCOCCCNC(=O)OC(C)(C)C)[C@H]1CC[C@H]2[C@@H]3CC=C4C[C@@H](O)CC[C@]4(C)[C@H]3CC[C@]12C [C3_Boc, oxybipin-2]
IC50: 74 nM
